Test results reported in patent publication US8546377B2 (AbbVie Inc., priority 2009, dated 2013).
Like-named read-outs stand apart in the source and are kept apart here.

How the values were obtained:
5HT2B receptors = biological target: T1, 5HT2B receptors (Homo sapiens, UniProt P41595); test: Human 5-HT2B functional assay in CHO-K1 cells (calcium flux, FLIPR); type: cell-based
T1 construct: expressed in transfected cells; host or cells: CHO-K1 cells
Method: (§1) (iii) Human 5-HT2C and 5-HT2B Functional Assay in CHO-K1 Cells
(§2) CHO-K1 cells over-expressing 5HT2C or 5HT2B receptors were grown in 1272 cm^2 flasks to 70-80% confluency in UltraCHO media supplemented with 1% dialyzed fetal bovine serum (FBS), 250 μg/mL zeocin, 100 U/mL penicillin/streptomycin, and 400 μg/mL geneticin. The cells were dissociated from the flasks using 0.05% trypsin, resuspended in freezing media and stored in liquid nitrogen until use. Calcium flux experiments were done using frozen cells. The cells were diluted in media containing 1% dialyzed FBS and 100 U/mL penicillin/streptomycin and plated into 384-well poly-D-Lysine coated plates (15,000 cells/well). Then the plates were incubated overnight in a cell incubator at 37° C., 5% CO2. On the next day, the growth media was replaced with media without FBS and further incubated overnight. On day three, the changes in intracellular Ca^2+ were determined using calcium sensitive fluorescent dye, Ca4 (MDS Analytical Technologies, Sunnyvale, Calif.) by loading 15 μL of diluted dye with 2.5 mM probenecid into the cells containing media and incubated at room temperature for 60 minutes in dark.
(§3) Fluorescence measurements were read at 25° C. at an excitation wavelength of 480 nm and an emission wavelength of 530 nm in FLIPR (MDS). Baseline fluorescence was measured for the first 10 seconds and then 15 μL of 4× concentrations of serotonin/test compounds was added to the cell plate. The fluorescence intensity was captured every second for the first 1 minute followed by every 5 seconds for an additional 2 minutes. The increase in fluorescent response was determined and was normalized to the response of serotonin. The concentration response of compounds was done from a starting concentration of 10 μM, 1:10 dilution across 6 wells with a final dimethyl sulfoxide concentration of 0.2% and was fitted using a 4-parameter logistic equation. The concentration at which a compound exerts half its maximal effect was named as ‘effective concentration 50’ or ‘EC50’.
(§4) Emax is the maximum functional response or efficacy expressed as a percentage relative to the effect of serotonin.

5HT2C receptors = biological target: T2, 5HT2C receptors (Homo sapiens, UniProt P28335); test: Human 5-HT2C functional assay in CHO-K1 cells (calcium flux, FLIPR); type: cell-based; parameters: expressed in transfected cells; host or cells: CHO-K1 cells; conditions: for Emax: percentage relative to the effect of serotonin
T2 sequence (P28335 33-458): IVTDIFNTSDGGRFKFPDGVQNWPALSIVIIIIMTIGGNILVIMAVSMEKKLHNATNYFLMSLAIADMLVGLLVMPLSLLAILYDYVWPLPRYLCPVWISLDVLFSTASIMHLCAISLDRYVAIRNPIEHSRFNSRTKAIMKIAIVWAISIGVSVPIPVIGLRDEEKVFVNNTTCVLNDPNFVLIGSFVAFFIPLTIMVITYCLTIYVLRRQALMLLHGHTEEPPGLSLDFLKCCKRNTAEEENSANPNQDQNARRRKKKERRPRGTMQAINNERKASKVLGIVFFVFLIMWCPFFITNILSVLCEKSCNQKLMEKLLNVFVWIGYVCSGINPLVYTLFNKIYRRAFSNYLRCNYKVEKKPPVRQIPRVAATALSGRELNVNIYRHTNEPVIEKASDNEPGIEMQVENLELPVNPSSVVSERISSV
Method: as §1, §2, §3, §4

[1] = CHO-K1 cells over-expressing 5HT2B, calcium flux, read-out: EC50 (μM), 5-HT2B Agonist Activity
[2] = CHO-K1 cells over-expressing 5HT2C, calcium flux, read-out: EC50 (μM), 5-HT2c Agonist Activity
[3] = CHO-K1 cells, read-out: Emax (%), 5-HT2c Agonist Activity
[4] = CHO-K1, read-out: Emax (%), 5-HT2c Agonist Activity, CHO-K1 cells
[5] = CHO-K1 cells, percentage relative to the effect of serotonin, read-out: Emax (%), 5-HT2B Agonist Activity
[6] = CHO-K1, read-out: Emax (%), 5-HT2B Agonist Activity

T1 sequence (P41595 whole entry): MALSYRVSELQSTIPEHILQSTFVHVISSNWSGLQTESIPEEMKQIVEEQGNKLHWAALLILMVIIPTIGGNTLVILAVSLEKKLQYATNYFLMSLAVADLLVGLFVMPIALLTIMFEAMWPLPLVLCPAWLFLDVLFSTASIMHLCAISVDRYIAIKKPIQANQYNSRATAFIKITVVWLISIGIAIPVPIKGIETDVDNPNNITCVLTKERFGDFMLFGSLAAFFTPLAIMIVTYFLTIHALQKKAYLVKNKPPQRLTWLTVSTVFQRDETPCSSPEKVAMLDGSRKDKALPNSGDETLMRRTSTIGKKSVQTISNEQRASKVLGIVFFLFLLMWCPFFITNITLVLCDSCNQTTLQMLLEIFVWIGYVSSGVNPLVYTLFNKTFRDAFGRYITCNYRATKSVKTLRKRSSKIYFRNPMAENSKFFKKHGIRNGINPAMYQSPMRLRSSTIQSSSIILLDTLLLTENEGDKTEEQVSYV

EC50 (5HT2B receptors; [1])	EC50 (5HT2C receptors; [2])	Emax (5HT2C receptors; [3])	Emax (5HT2B receptors; [5])	SMILES	EC50 (5HT2B receptors)	EC50 (5HT2C receptors)	Emax (5HT2C receptors; [4])	Emax (5HT2B receptors; [6])
> 10 µM	0.007 µM	> 120%		O=C1C[C@H]2CNCCN2c2cc(OCCc3cccc(F)c3)ccc2N1 [Example 164, (4aS)-10-[2-(3-fluorophenyl)ethoxy]-1,2,3,4,4a,5-hexahydropyrazino[1,2-a][1,5]benzodiazepin-6(7H)-one]				
				O=C1C[C@H]2CNCCN2c2ccc(Cl)cc2N1 [Example 55, (4aS)-9-chloro-1,2,3,4,4a,5-hexahydropyrazino[1,2-a][1,5]benzodiazepin-6(7H)-one]	> 10 µM	0.02 µM	> 120%	
> 10 µM	0.9 µM	100%		O=C1C[C@H]2CNCCN2c2cc(OCCc3ccccn3)ccc2N1 [Example 171, (4aS)-10-[2-(pyridin-2-yl)ethoxy]-1,2,3,4,4a,5-hexahydropyrazino[1,2-a][1,5]benzodiazepin-6(7H)-one]				
				Cc1cccc2c1OCC[C@H]1CN(C)CCN21 [Example 242, (4aS)-3,8-dimethyl-2,3,4,4a,5,6-hexahydro-1H-pyrazino[2,1-d][1,5]benzoxazepine]	> 10 µM	0.002 µM	80%	
1 µM	0.02 µM	> 120%	30%	O=C1CC2CNCCN2c2cc(OCc3ccccc3)ccc2N1 (centres unmarked) [Example 149, 10-(benzyloxy)-1,2,3,4,4a,5-hexahydropyrazino[1,2-a][1,5]benzodiazepin-6(7H)-one]				
				CCN1CCN2c3ccccc3OCC[C@H]2C1 [Example 235, (4aS)-3-ethyl-2,3,4,4a,5,6-hexahydro-1H-pyrazino[2,1-d][1,5]benzoxazepine]	> 10 µM	0.02 µM	100%	
0.3 µM	0.01 µM	105%	10%	CC(O)c1ccc(-c2cccc3c2OCC[C@H]2CNCCN32)cc1 (stereo partly drawn) [Example 234, 1-{4-[(4aS)-2,3,4,4a,5,6-hexahydro-1H-pyrazino[2,1-d][1,5]benzoxazepin-8-yl]phenyl}ethanol]				
> 10 µM	0.2 µM	110%		COc1ccc(-c2ccc3c(c2)N2CCNCC2CC(=O)N3)cc1 (centres unmarked) [Example 58, 10-(4-methoxyphenyl)-1,2,3,4,4a,5-hexahydropyrazino[1,2-a][1,5]benzodiazepin-6(7H)-one]				
1 µM	0.03 µM	120%	25%	CC(C)Cc1ccc2c(c1)N1CCNC[C@@H]1CCO2 [Example 213, (4aS)-10-isobutyl-2,3,4,4a,5,6-hexahydro-1H-pyrazino[2,1-d][1,5]benzoxazepine]				
				Cc1ccc2c(c1)OCC[C@@H]1CNCCN21 [Example 259, (4aR)-9-methyl-2,3,4,4a,5,6-hexahydro-1H-pyrazino[2,1-d][1,5]benzoxazepine]	0.1 µM	0.004 µM	100%	70%
2 µM	0.07 µM	> 120%	20%	O=C1CC2CNCCN2c2cc(-c3ccsc3)ccc2N1 (centres unmarked) [Example 72, 10-(3-thienyl)-1,2,3,4,4a,5-hexahydropyrazino[1,2-a][1,5]benzodiazepin-6(7H)-one]				
0.09 µM	0.01 µM	100%	70%	FC(F)(F)c1ccc2c(c1)N1CCNC[C@@H]1CCO2 [Example 217, (4aS)-10-(trifluoromethyl)-2,3,4,4a,5,6-hexahydro-1H-pyrazino[2,1-d][1,5]benzoxazepine]				
> 10 µM	0.2 µM	100%		CCN1C(=O)CC2CNCCN2c2ccc(Cl)cc21 (centres unmarked) [Example 77, 9-chloro-7-ethyl-1,2,3,4,4a,5-hexahydropyrazino[1,2-a][1,5]-benzodiazepin-6(7H)-one]				
				CN1CCN2c3cc(Cl)ccc3OCC[C@H]2C1 [Example 188, (4aS)-10-chloro-3-methyl-2,3,4,4a,5,6-hexahydro-1H-pyrazino[2,1-d][1,5]benzoxazepine]	> 10 µM	0.01 µM	70%	
				Brc1ccc2c(c1)NCC[C@H]1CNCCN21 [Example 54, (4aS)-9-bromo-1,2,3,4,4a,5,6,7-octahydropyrazino[1,2-a][1,5]benzodiazepine]	> 10 µM	0.07 µM	110%	
> 10 µM	0.002 µM	> 120%	50%	O=C1CC2CNCCN2c2cc(CCc3ccccc3F)ccc2N1 (centres unmarked) [Example 144, 10-[2-(2-fluorophenyl)ethyl]-1,2,3,4,4a,5-hexahydropyrazino[1,2-a][1,5]benzodiazepin-6(7H)-one]				
				c1cncc(-c2cccc3c2OCC[C@H]2CNCCN32)c1 [Example 248, (4aS)-8-(pyridin-3-yl)-2,3,4,4a,5,6-hexahydro-1H-pyrazino[2,1-d][1,5]benzoxazepine]	> 10 µM	0.0007 µM	85%	
				Brc1cccc2c1OCC[C@H]1CNCCN21 [Example 236, (4aS)-8-bromo-2,3,4,4a,5,6-hexahydro-1H-pyrazino[2,1-d][1,5]benzoxazepine]	0.01 µM	0.002 µM	100%	10%
> 10 µM	1 µM	80%		O=C1CC2CNCCN2c2cc(-c3cc4ccccc4s3)ccc2N1 (centres unmarked) [Example 75, 10-(1-benzothiophen-2-yl)-1,2,3,4,4a,5-hexahydropyrazino[1,2-a][1,5]benzodiazepin-6(7H)-one]				
				Cc1ccc2c(c1)N1CCNC[C@H]1CCO2 [Example 257, (4aR)-10-methyl-2,3,4,4a,5,6-hexahydro-1H-pyrazino[2,1-d][1,5]benzoxazepine]	0.02 µM	0.001 µM	90%	60%
				Cc1ccc2c(c1)OCC[C@H]1CNCCN21 [Example 133, (4aS)-9-methyl-2,3,4,4a,5,6-hexahydro-1H-pyrazino[2,1-d][1,5]benzoxazepine]	> 10 µM	0.01 µM	100%	
1 µM	0.01 µM	> 120%	20%	C1=C(c2ccc3c(c2)N2CCNC[C@@H]2CCO3)CCOC1 [Example 210, (4aS)-10-(3,6-dihydro-2H-pyran-4-yl)-2,3,4,4a,5,6-hexahydro-1H-pyrazino[2,1-d][1,5]benzoxazepine]				
				[2H]c1cccc2c1OCC[C@H]1CNCCN21 [Example 254, (4aS)-(8-^2H)-2,3,4,4a,5,6-hexahydro-1H-pyrazino[2,1-d][1,5]benzoxazepine]	0.09 µM	0.005 µM	115%	35%
> 10 µM	0.8 µM	> 120%		Clc1ccc2c(c1)N1CCN(Cc3ccccc3)C[C@@H]1CCO2 [Example 186, (4aS)-3-benzyl-10-chloro-2,3,4,4a,5,6-hexahydro-1H-pyrazino[2,1-d][1,5]-benzoxazepine]				
				CN1CCN2c3cccc(F)c3NC(=O)C[C@H]2C1 [Example 88, (4aS)-8-fluoro-3-methyl-1,2,3,4,4a,5-hexahydropyrazino[1,2-a][1,5]benzodiazepin-6(7H)-one]	> 10 µM	0.03 µM	> 120%	
				C[C@H]1C[C@H]2CNCCN2c2ccccc2O1 (single isomer, unassigned) [Example 253]	> 10 µM	0.09 µM	100%	

SMILES	EC50 (5HT2B receptors; [1])	EC50 (5HT2C receptors; [2])	Emax (5HT2C receptors; [3])	Emax (5HT2B receptors; [5])	EC50 (5HT2B receptors)	EC50 (5HT2C receptors)	Emax (5HT2C receptors; [4])	Emax (5HT2B receptors; [6])
c1cc(-c2ccc3c(c2)N2CCNC[C@@H]2CCO3)ccn1 [Example 207, (4aS)-10-(pyridin-4-yl)-2,3,4,4a,5,6-hexahydro-1H-pyrazino[2,1-d][1,5]benzoxazepine]	> 10 µM	0.8 µM					> 120%	
